Laboratory results as given in ChEMBL document CHEMBL5260854, “Discovery of Novel TRPM8 Blockers Suitable for the Treatment of Somatic and Ocular Painful Conditions: A Journey through pKa and LogD Modulation” (J Med Chem, 2021).
Values after ≈ are worked out from the molar mass of the structure shown. Active and inactive are the calls of the source. The rule behind the calls is not given here.

Tests used:
[1] = Dissociation constant, pKa of the compound; type: physicochemical
[2] = Metabolic stability in rat liver microsomes assessed as phase 1 metabolism by measuring half life; type: ADME, Microsome
[3] = Lipophilicity, logD of the compound at pH 7.4; type: physicochemical; details: buffer
[4] = Metabolic stability in rat liver microsomes assessed as phase 2 metabolism by measuring half life; type: ADME, Microsome
[5] = Apparent permeability in HCECs at 0.1%; type: ADME, cell-based, HCEC; details: human, not told
[6] = Metabolic stability in human liver S9 fraction assay as half life in presence of NADPH, glutathione, UDPGA and PAPS; type: ADME, subcellular
[7] = target: Sodium channel protein type 9 subunit alpha (Homo sapiens) (UniProt Q15858); assay: Inhibition of Nav1.7 (unknown origin)
[8] = Solubility of compound at pH 7.4; type: physicochemical; details: buffer
[9] = target: Transient receptor potential cation channel subfamily V member 4 (Homo sapiens) (UniProt Q9HBA0); assay: Inhibition of TRPV4 (unknown origin) upto 100 uM
[10] = target: Transient receptor potential cation channel subfamily V member 1 (Homo sapiens) (UniProt Q8NER1); assay: Inhibition of TRPV1 (unknown origin) upto 100 uM
[11] = target: T1, Transient receptor potential cation channel subfamily M member 8 (Homo sapiens, UniProt Q7Z2W7); assay: Inhibition of human TRPM8 expressed in HEK293 cells assessed as reduction in icilin induced Ca2+ efflux preincubated for 5 mins followed by icilin addition and measured for 3 mins by FLIPR assay; type: cell-based
[12] = target: Transient receptor potential cation channel subfamily A member 1 (Homo sapiens) (UniProt O75762); assay: Inhibition of TRPA1 (unknown origin) upto 100 uM
[13] = target: T1, Transient receptor potential cation channel subfamily M member 8; assay: Inhibition of human TRPM8 expressed in HEK293 cells assessed as reduction in ethyl 4-methoxy-2-phenylthiazole-5-carboxylate induced Ca2+ efflux preincubated for 5 mins followed by ethyl 4-methoxy-2-phenylthiazole-5-carboxylate addition and measured for 3 mins by FLIPR assay; type: cell-based
[14] = Lipophilicity, logP of compound; type: physicochemical; details: octanol/water
[15] = Metabolic stability in rat liver microsomes assessed as parent compound remaining after 30 mins; type: ADME, Microsome; details: for remaining at 0.5 h: read-out: Stability
[16] = Cmax in rat at 10 mg/kg, po; type: ADME, organism-based; set-up: dose 10 mg/kg, route po; details: in vivo
[17] = Clearance in rat at 5 mg/kg, iv; type: ADME, organism-based; details: in vivo
[18] = Volume of distribution at steady state in rat at 5 mg/kg, iv; type: ADME, organism-based; details: in vivo, read-out: Vdss
[19] = target: T1, Transient receptor potential cation channel subfamily M member 8; assay: Inhibition of human TRPM8 expressed in HEK293 cells assessed as reduction in cold stimulated Ca2+ efflux preincubated for 5 mins followed by cold stimulation and measured for 3 mins; type: cell-based
[20] = Half life in rat at 5 mg/kg, iv; type: ADME, organism-based; details: in vivo
[21] = Oral bioavailability in rat at 10 mg/kg; type: ADME, organism-based; details: in vivo
[22] = target: Transient receptor potential cation channel subfamily M member 3 (Homo sapiens) (UniProt Q9HCF6); assay: Inhibition of TRPM3 (unknown origin) upto 100 uM
[23] = Half life in rat at 10 mg/kg, po; type: ADME, organism-based; details: in vivo
[24] = Half life in rat at 10 mg/kg, iv; type: ADME, organism-based; details: in vivo
[25] = Volume of distribution at steady state in rat at 10 mg/kg, iv; type: ADME, organism-based; details: in vivo, read-out: Vdss
[26] = Clearance in rat at 10 mg/kg, iv; type: ADME, organism-based; details: in vivo
[27] = Stability in stimulated gastric fluid at pH 1.2; type: physicochemical; details: simulated gi fluid
[28] = Metabolic stability in rat liver microsomes assessed as parent compound remaining after 4 hrs; type: ADME, Microsome; details: read-out: Stability
[29] = Stability in human plasma assessed as compound remaining after 60 mins; type: ADME, cell-free; details: read-out: Stability
[30] = Stability in rat plasma assessed as compound remaining after 60 mins; type: ADME, cell-free; details: read-out: Stability
[31] = Stability in human hepatocytes assessed as half life; type: ADME, cell-based, Hepatocyte
[32] = Volume of distribution at steady state in rat at 3 mg/kg, iv; type: ADME, organism-based; details: in vivo, read-out: Vdss
[33] = Clearance in rat at 3 mg/kg, iv; type: ADME, organism-based; details: in vivo
[34] = Half life in rat at 3 mg/kg, iv; type: ADME, organism-based; details: in vivo

T1 sequence (Q7Z2W7 whole entry): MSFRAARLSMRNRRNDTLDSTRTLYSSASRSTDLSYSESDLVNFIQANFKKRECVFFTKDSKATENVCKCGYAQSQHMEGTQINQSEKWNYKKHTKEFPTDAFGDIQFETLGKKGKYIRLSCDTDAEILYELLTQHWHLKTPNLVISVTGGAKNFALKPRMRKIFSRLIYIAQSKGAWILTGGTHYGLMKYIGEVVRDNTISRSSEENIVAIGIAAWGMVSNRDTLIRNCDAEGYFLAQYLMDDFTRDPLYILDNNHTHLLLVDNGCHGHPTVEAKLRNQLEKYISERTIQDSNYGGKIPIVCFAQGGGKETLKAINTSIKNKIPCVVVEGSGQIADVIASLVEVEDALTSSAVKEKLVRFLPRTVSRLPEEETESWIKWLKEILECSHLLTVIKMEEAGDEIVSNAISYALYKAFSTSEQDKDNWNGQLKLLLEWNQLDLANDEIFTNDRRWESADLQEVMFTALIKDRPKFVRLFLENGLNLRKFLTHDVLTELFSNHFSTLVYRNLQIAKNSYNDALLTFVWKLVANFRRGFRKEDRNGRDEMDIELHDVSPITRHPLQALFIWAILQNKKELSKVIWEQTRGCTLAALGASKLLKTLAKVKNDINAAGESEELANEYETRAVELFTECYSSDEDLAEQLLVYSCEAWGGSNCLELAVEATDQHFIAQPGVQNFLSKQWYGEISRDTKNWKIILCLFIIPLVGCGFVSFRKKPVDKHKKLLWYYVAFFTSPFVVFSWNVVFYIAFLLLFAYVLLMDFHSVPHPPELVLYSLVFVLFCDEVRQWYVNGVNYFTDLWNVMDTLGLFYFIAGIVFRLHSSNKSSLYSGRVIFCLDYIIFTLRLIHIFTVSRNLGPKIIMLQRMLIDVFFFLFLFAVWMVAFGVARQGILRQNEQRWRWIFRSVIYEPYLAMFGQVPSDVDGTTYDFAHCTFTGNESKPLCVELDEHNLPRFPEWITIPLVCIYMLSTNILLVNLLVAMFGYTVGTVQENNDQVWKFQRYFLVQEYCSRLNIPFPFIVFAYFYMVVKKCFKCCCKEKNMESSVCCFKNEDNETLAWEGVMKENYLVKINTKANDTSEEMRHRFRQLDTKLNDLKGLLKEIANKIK
Chain of Transient receptor potential cation channel subfamily V member 1 (Homo sapiens) (Q8NER1 whole entry): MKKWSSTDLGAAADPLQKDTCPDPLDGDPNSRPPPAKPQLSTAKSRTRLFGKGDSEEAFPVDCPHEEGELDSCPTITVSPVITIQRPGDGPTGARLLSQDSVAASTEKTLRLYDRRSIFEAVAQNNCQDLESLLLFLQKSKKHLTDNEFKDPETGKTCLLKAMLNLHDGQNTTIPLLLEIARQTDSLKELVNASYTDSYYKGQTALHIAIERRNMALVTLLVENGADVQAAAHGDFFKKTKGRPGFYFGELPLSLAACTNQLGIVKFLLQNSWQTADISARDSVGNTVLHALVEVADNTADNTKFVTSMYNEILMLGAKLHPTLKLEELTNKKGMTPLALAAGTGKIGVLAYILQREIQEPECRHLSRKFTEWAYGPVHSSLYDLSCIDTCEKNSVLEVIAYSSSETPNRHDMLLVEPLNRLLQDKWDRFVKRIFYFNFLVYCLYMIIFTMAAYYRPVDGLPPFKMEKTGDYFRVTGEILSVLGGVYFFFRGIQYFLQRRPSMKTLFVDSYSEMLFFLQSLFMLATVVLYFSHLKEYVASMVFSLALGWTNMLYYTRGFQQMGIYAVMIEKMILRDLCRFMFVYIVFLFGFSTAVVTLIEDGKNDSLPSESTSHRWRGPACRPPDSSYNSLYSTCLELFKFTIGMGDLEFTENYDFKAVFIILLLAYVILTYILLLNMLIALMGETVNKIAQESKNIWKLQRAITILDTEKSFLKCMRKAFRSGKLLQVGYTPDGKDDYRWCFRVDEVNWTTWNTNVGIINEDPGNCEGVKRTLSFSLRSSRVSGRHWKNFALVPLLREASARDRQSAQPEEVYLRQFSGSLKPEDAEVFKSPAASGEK
Chain of Transient receptor potential cation channel subfamily V member 4 (Homo sapiens) (Q9HBA0 whole entry): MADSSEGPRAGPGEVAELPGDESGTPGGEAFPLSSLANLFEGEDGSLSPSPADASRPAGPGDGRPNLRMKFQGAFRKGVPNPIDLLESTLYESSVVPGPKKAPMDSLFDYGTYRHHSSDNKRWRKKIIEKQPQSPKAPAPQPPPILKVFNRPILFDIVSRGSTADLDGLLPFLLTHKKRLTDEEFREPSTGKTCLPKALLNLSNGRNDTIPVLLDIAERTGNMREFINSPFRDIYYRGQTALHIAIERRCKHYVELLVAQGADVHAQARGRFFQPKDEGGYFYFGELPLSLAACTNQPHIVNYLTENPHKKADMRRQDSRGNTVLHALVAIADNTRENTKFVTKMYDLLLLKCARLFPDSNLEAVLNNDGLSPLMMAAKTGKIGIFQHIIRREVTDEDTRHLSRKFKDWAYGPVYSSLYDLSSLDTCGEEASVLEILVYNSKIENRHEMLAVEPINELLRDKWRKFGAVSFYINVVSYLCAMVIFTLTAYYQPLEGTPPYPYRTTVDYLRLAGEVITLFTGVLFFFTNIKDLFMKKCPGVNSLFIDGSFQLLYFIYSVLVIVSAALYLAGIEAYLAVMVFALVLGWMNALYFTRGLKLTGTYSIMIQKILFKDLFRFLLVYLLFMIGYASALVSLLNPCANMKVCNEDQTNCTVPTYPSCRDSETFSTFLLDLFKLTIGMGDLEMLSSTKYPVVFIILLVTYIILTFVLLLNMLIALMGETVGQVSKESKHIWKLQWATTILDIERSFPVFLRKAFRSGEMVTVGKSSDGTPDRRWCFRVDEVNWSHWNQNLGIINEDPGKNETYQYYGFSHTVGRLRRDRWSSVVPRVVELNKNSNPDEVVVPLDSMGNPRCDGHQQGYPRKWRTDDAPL
Chain of Transient receptor potential cation channel subfamily A member 1 (Homo sapiens) (O75762 whole entry): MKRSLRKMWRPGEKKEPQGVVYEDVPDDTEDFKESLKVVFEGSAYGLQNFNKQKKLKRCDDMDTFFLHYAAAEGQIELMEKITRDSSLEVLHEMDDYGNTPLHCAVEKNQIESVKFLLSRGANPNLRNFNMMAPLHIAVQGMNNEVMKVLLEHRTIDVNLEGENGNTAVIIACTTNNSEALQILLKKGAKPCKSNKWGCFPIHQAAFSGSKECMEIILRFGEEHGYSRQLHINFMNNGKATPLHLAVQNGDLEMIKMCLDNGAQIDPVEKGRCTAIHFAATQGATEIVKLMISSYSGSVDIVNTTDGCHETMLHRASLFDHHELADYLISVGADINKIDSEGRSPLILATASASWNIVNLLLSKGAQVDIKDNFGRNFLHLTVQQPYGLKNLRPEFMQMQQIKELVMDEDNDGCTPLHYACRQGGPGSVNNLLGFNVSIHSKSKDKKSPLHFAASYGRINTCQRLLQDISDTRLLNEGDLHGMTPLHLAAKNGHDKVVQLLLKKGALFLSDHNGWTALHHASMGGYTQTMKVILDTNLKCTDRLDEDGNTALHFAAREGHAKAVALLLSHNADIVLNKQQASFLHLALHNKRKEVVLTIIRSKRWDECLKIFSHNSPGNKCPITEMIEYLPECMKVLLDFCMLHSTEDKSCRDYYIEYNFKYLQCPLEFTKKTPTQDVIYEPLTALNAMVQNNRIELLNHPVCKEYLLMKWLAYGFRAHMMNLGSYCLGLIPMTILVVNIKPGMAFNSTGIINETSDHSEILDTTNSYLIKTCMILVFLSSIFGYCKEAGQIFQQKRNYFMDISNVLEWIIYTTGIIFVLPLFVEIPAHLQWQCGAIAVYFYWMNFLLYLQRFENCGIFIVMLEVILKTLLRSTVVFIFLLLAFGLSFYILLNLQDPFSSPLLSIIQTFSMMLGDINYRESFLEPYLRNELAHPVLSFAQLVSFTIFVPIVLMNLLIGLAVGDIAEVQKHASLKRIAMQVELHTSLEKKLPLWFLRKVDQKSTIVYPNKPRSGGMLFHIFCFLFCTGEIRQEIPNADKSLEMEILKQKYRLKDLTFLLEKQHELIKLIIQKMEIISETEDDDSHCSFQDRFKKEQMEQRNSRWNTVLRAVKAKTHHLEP

## CCCC(=O)c1sc(-c2cccc(F)c2)nc1O
[1]
  pKa: 4.31
[2]
  half-life: 39.3 min
[3]
  logD: 1.18
[4]
  half-life: 127 min

## O=C(c1sc(-c2ccccc2O)nc1O)N1CCCO1
[5]
  Papp at 0.1 %: 48.3 ×10⁻⁶ cm/s
[6]
  half-life: 53 min
[7]
  inhibition: inactive
[1]
  pKa: 9.3
[8]
  solubility: 9.7 mM (≈ 2840 µg/mL)
[9]
  inhibition: inactive
[3]
  logD: 0.77
[10]
  inhibition: inactive
[11]
  IC50: 4.5 nM
[12]
  inhibition: inactive

## CCn1nnnc1-c1sc(-c2cccc(F)c2)nc1O
[13]
  IC50: > 100000 nM

## CCn1nnc(-c2sc(-c3ccc(F)cc3)nc2O)n1
[13]
  IC50: 286 nM

## Oc1nc(-c2cccc(F)c2)sc1-c1nn[nH]n1
[13]
  IC50: > 100000 nM

## CCn1nnc(-c2sc(-c3c(Cl)cccc3Cl)nc2O)n1
[13]
  IC50: 16500 nM

## CCOC(=O)c1oc(-c2ccc(Cl)cc2)nc1O
[13]
  IC50: > 100000 nM

## COC(=O)c1sc(-c2ccccc2)nc1O
[1]
  pKa: 6.3
[14]
  logP: 3.77
[15]
  remaining at 0.5 h: 42%
[3]
  logD: 2.5

## CCOC(=O)c1cnc(-c2ccccc2)s1
[13]
  IC50: > 100000 nM

## CCC(=O)c1sc(-c2cccc(F)c2)nc1O
[16]
  Cmax: 10700 ng/mL
[17]
  clearance: 5.31 mL/min/kg
[18]
  Vd: 1.69 L/kg
[19]
  IC50: 8.5 nM
[2]
  half-life: 118 min
[8]
  solubility: 15.2 mM (≈ 3820 µg/mL)
[13]
  IC50: 29 nM
[20]
  half-life: 189 min
[9]
  inhibition: inactive
[3]
  logD: 0.44
[21]
  bioavailability: 98.8%
[10]
  inhibition: inactive
[4]
  half-life: 136 min
[22]
  inhibition: inactive
[11]
  IC50: 33 nM
[12]
  inhibition: inactive
[23]
  half-life: 188 min

## O=C(O)c1sc(-c2ccccc2)nc1O
[13]
  IC50: > 100000 nM

## CCOC(=O)c1sc(-c2ccccc2)nc1CO
[13]
  IC50: > 100000 nM

## Cc1nnc(-c2sc(-c3cccc(F)c3)nc2O)o1
[13]
  IC50: 9100 nM

## O=C(c1sc(-c2cccc(F)c2)nc1O)N1CCCOC1
[13]
  IC50: > 100000 nM

## O=C(c1sc(-c2cccc(F)c2)nc1O)N1CCCO1
[5]
  Papp at 0.1 %: 16.4 ×10⁻⁶ cm/s
[6]
  half-life: > 120 min
[1]
  pKa: 6.3
[8]
  solubility: 7.1 mM (≈ 2090 µg/mL)
[3]
  logD: 0.82

## CCON(C)C(=O)c1sc(-c2cccc(F)c2)nc1O
[13]
  IC50: 1680 nM

## CCN(CC)c1ccc2c(-c3ccccc3C(=O)O)c3ccc(=[N+](CC)CC)cc-3oc2c1.[Cl-] [RHODAMINE]
[5]
  Papp at 0.1 %: 36.6 ×10⁻⁶ cm/s

## CSc1cc(-c2ccc(Cl)cc2)[nH]n1
[14]
  logP: 3.57
[15]
  remaining at 0.5 h: 41%

## O=C(c1sc(-c2cccc(F)c2)nc1O)N1CCCCCO1
[13]
  IC50: 32 nM

## CCn1nnc(-c2sc(-c3cccc(O)c3)nc2O)n1
[13]
  IC50: 239 nM

## CCNC(=O)c1sc(-c2ccccc2)nc1O
[13]
  IC50: > 100000 nM

## Cn1nnc(-c2sc(-c3cccc(F)c3)nc2O)n1
[13]
  IC50: 214 nM

## CCOC(=O)c1sc(-c2cccc(F)c2)nc1O
[16]
  Cmax: 2140 ng/mL
[24]
  half-life: 33.6 min
[1]
  pKa: 4.7
[2]
  half-life: 27 min
[8]
  solubility: 0.08 mM (≈ 21.4 µg/mL)
[13]
  IC50: 39 nM
[25]
  Vd: 0.259 L/kg
[3]
  logD: 1.5
[26]
  clearance: 24 mL/min/kg
[21]
  bioavailability: 15%
[27]
  Stability: 50%
[4]
  half-life: > 5 min
[28]
  remaining at 4 h: 105%
[23]
  half-life: 137 min

## CCn1nnc(-c2sc(-c3ccc(Cl)cc3)nc2O)n1
[13]
  IC50: 7550 nM

## CCOC(=O)c1sc(-c2cccc(Cl)c2)nc1O
[13]
  IC50: 1300 nM

## CCOC(=O)c1ccc(-c2cccc(F)c2)cc1O
[13]
  IC50: > 100000 nM

## COc1cccc(NS(=O)(=O)c2c(C)cc(C)c([N+](=O)[O-])c2C)c1
[1]
  pKa: 7.8
[14]
  logP: 4.33
[15]
  remaining at 0.5 h: 29%
[3]
  logD: 3.19

## CCOC(=O)c1sc(-c2ccccc2)nc1O
[13]
  IC50: 32 nM

## CC(C)C(=O)c1sc(-c2cccc(F)c2)nc1O
[1]
  pKa: 4.27
[2]
  half-life: 59.1 min
[3]
  logD: 0.91
[4]
  half-life: 97.8 min

## CCn1nnc(-c2sc(-c3cccc(N)c3)nc2O)n1
[13]
  IC50: 61 nM

## CC(=O)c1sc(-c2cccc(F)c2)nc1O
[1]
  pKa: 4.1
[2]
  half-life: 35.2 min
[3]
  logD: 0.77
[4]
  half-life: 108 min

## COC(=O)c1nc(-c2ccccc2)sc1O
[13]
  IC50: > 100000 nM

## CCn1nnc(-c2sc(-c3ccc(O)cc3)nc2O)n1
[13]
  IC50: 11600 nM

## CC(C)CC(=O)c1sc(-c2cccc(F)c2)nc1O
[1]
  pKa: 4.3
[2]
  half-life: 49.8 min
[13]
  IC50: 289 nM
[3]
  logD: 1.35
[4]
  half-life: 156 min

## CCOC(=O)c1sc(-c2ccccc2)nc1N
[13]
  IC50: > 100000 nM

## CCOC(=O)c1sc(-c2ccccc2)nc1OC
[13]
  IC50: > 100000 nM

## CCN(C(=O)/C=C/c1cccc([N+](=O)[O-])c1)c1ccccc1
[14]
  logP: 3.6
[15]
  remaining at 0.5 h: 32%
[13]
  IC50: 575 nM

## Cc1nc(-c2sc(-c3cccc(F)c3)nc2O)no1
[13]
  IC50: 1800 nM

## CCn1nnc(-c2sc(-c3cccc(F)c3)nc2O)n1
[16]
  Cmax: 47 ng/mL
[29]
  remaining at 1 h: 95%
[1]
  pKa: 5.9
[2]
  half-life: 38 min
[30]
  remaining at 1 h: 92%
[15]
  half-life: < 30 min
[8]
  solubility: 0.631 mM (≈ 184 µg/mL)
[31]
  half-life: 56.7 min
[32]
  Vd: 0.082 L/kg
[3]
  logD: 2
[21]
  bioavailability: 1%
[4]
  half-life: > 5 min
[33]
  clearance: 3.11 mL/min/kg
[23]
  half-life: 307 min
[34]
  half-life: 44.4 min

## CCOC(=O)Cc1sc(-c2ccccc2)nc1O
[13]
  IC50: 950 nM

## O=C(O)c1ccc(C(=O)O)c(-c2c3ccc(=O)cc-3oc3cc(O)ccc23)c1 [6-Carboxyfluorescein]
[5]
  Papp at 0.1 %: 1.9 ×10⁻⁶ cm/s

## O=C(c1sc(-c2cccc(F)c2)nc1O)N1CCOCC1
[13]
  IC50: 12200 nM
